“And” between values parts separate entries of the source, which are not always exact repeats. Equal entries are not always repeated. Peptide text beside a SMILES is read from it.
Assay: Growth stimulation in rats fed chow containing the additive (body weight over 15 days)
Assay type: in vivo, Wistar strain rats
Conditions: 0.25% wt/wt in feed; for Mean Body Weight, experimental animals: 10 male Wistar rats; for Body Weight of Animals (individual experimental animals): male Wistar rats
Method: Two groups of 10 Wistar strain rats each, all males to avoid estrus cyclical changes in the 15-day experimental period, were kept in two separate stock cages in an animal room maintained at 25° C. with an automatic 12-hour light-12-hour-dark cycle. Dry standard laboratory chow pellets were made up into a wet mash by adding a 1:1 mixture of water (wt/wt), which then was compressed by hand into balls weighing approximately 20 grams each. To each 20 g ball made for the experimental group, 50 mg of the methyl ester of L-aspartyl-L-phenylalanine was added, which represents a 0.25% wt/wt admixture. More than adequate food was made freely available to the animals at all times and drinking water was made available ad libitum. All individual rats were numbered by a colored stripe system marked on the tail. The animals were weighed on a balance to an accuracy of 1 gram at the start of the experiment (3 days after arrival in the cages to allow them to adjust to their new environment). They were then weighed again after 2, 4, 6, 8, 10, 12 and 14 days from the start of the new diet (i.e., days 3, 5, 7, 9, 11, 13 and 15 of the experiment). The rates of growth of the control and experimental animals is summarized in tabular form below: […]

[1] = Day 1 (start of diet, baseline)

## COC(=O)[C@H](Cc1ccccc1)NC(=O)[C@@H](N)CC(=O)O [methyl ester of L-aspartyl-L-phenylalanine] (H-Asp-Phe-OMe)
[1]
  Mean Body Weight, experimental animals: 102.6 grams
  Body Weight of Animals (individual experimental animals): 94 grams and 105 grams and 96 grams and 110 grams and 102 grams and 98 grams and 104 grams and 95 grams and 114 grams and 108 grams
Day 3
  Mean Body Weight, experimental animals: 117.8 grams
  Body Weight of Animals (individual experimental animals): 112 grams and 119 grams and 110 grams and 128 grams and 120 grams and 109 grams and 129 grams
Day 5
  Mean Body Weight, experimental animals: 133.4 grams
  Body Weight of Animals (individual experimental animals): 130 grams and 135 grams and 126 grams and 145 grams and 134 grams and 127 grams and 124 grams
Day 7
  Mean Body Weight, experimental animals: 149.8 grams
  Body Weight of Animals (individual experimental animals): 148 grams and 153 grams and 143 grams and 161 grams and 150 grams and 149 grams and 140 grams and 162 grams
Day 9
  Mean Body Weight, experimental animals: 166.8 grams
  Body Weight of Animals (individual experimental animals): 169 grams and 160 grams and 161 grams and 178 grams and 166 grams and 158 grams and 165 grams and 155 grams and 180 grams
Day 11
  Mean Body Weight, experimental animals: 183.1 grams
  Body Weight of Animals (individual experimental animals): 184 grams and 188 grams and 180 grams and 193 grams and 183 grams and 172 grams and 181 grams and 169 grams and 197 grams
Day 13
  Mean Body Weight, experimental animals: 199.9 grams
  Body Weight of Animals (individual experimental animals): 203 grams and 204 grams and 195 grams and 209 grams and 202 grams and 186 grams and 200 grams and 184 grams and 213 grams
Day 15
  Mean Body Weight, experimental animals: 215.9 grams
  Body Weight of Animals (individual experimental animals): 220 grams and 223 grams and 211 grams and 226 grams and 217 grams and 201 grams and 215 grams and 198 grams and 227 grams and 221 grams
rats, after 2 weeks
  mean body weight of the experimental group higher than the mean body weight of the control group: about 34%
rats, beginning with the seventh day of the experiment
  increase in body weight versus control (in words): significant increases in body weight

— patent US4355024A, “Method and feed for stimulating the growth of animals” (priority 1979, dated 1982)
